Laboratory results as given in PMC4700268 (Frontiers in Pharmacology, 2016).

How the values were obtained:
Assay type in all cases: in vitro ADME
hOCT2 = target: T1, hOCT2 (Homo sapiens, UniProt O15244); assay: Inhibition of [3H]MPP+ uptake in hOCT2 transfected MDCK II cells; details: 1 μM [3H]MPP+, ETV 0–2000 μM, 2 min
T1 construct: host or cells: MDCK II cells, transient transfection
T1 sequence (O15244 1-555): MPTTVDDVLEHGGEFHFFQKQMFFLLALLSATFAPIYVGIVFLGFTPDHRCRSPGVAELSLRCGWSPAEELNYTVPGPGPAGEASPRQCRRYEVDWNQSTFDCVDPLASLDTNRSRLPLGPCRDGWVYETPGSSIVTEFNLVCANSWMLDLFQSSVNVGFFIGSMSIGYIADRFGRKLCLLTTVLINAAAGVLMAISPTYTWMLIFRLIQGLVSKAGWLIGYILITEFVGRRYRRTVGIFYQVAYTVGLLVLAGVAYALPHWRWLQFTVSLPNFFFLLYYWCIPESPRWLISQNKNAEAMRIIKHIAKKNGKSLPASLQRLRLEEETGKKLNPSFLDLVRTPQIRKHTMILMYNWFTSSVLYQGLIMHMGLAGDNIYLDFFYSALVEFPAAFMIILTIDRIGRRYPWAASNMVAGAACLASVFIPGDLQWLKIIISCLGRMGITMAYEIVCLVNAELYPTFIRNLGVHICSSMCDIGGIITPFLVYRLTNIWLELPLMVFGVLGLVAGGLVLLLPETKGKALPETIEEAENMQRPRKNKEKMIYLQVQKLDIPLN
Description: Inhibitory transport assays were carried out in 24-well plates as described previously ([Mandikova et al., 2013]). Transport assays in HeLa cells transiently transfected with the hOAT1 expression construct were performed 48 h after transfection. Transport assays in MDCK II cells transiently transfected with hOCT2, hCNT2 or hCNT3 were performed 24 h after transfection. The cultivation medium was removed and the cells were washed with transport solution and preincubated for 10 min at 37°C. The standard radiolabeled substrate or tested radioactive antiviral substance dissolved in transport solution was added to the cells and incubated for 2 min. […] After the designated time period, the incubation was stopped by washing the cells twice with ice-cold solution containing 137 mM NaCl and 10 mM HEPES, pH 7.4. The cells were disintegrated with 0.1 mL of Triton X 0.5% in 100 mM NaOH for 1 h. […] IC50 values were calculated using non-linear regression analysis using GraphPad Prism software (version 6).

hCNT3 = target: T2, hCNT3 (Homo sapiens, UniProt Q9HAS3); assay: Inhibition of [3H]uridine uptake in hCNT3 transfected MDCK II cells; set-up: host or cells: MDCK II cells, transient transfection; details: 1 μM [3H]uridine, MDCK II cells transiently transfected with hCNT3, 2 min, 37°C; read-out: IC50, inhibition of hCNT3 mediated transport
T2 sequence (Q9HAS3 1-691): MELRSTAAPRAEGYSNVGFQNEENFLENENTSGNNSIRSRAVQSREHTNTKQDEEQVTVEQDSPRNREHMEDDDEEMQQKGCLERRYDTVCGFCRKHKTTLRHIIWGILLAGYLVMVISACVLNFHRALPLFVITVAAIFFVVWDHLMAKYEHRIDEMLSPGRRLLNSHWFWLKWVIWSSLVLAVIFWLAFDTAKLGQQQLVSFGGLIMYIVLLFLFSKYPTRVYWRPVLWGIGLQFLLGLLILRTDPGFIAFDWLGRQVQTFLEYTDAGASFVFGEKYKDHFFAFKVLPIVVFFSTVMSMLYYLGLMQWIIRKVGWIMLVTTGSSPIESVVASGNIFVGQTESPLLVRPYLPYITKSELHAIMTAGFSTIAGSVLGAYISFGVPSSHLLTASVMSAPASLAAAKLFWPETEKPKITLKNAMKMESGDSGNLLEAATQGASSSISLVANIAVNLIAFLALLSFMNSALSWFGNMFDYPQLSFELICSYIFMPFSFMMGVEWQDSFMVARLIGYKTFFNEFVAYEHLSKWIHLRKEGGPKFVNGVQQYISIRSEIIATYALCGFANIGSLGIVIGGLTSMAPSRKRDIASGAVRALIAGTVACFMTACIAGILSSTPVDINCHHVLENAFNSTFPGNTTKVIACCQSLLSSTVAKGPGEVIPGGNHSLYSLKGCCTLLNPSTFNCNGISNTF
Description: (§1) Inhibitory transport assays were carried out in 24-well plates as described previously ([Mandikova et al., 2013]). Transport assays in HeLa cells transiently transfected with the hOAT1 expression construct were performed 48 h after transfection. Transport assays in MDCK II cells transiently transfected with hOCT2, hCNT2 or hCNT3 were performed 24 h after transfection. The cultivation medium was removed and the cells were washed with transport solution and preincubated for 10 min at 37°C. The standard radiolabeled substrate or tested radioactive antiviral substance dissolved in transport solution was added to the cells and incubated for 2 min. [^3H]PAH (1 μM) was used as a prototypical substrate for OATs, [^3H]MPP^+ (1 μM) for OCTs and [^3H]uridine (1 μM) for CNTs. […] After the designated time period, the incubation was stopped by washing the cells twice with ice-cold solution containing 137 mM NaCl and 10 mM HEPES, pH 7.4. The cells were disintegrated with 0.1 mL of Triton X 0.5% in 100 mM NaOH for 1 h.
(§2) IC50 values were calculated using non-linear regression analysis using GraphPad Prism software (version 6).

hCNT2 = target: T3, hCNT2 (Homo sapiens, UniProt O43868); assay: Inhibition of [3H]uridine uptake in hCNT2 transfected MDCK II cells; set-up: host or cells: MDCK II cells, transient transfection; details: 1 μM [3H]uridine, MDCK II cells transiently transfected with hCNT2, 2 min, 37°C; read-out: IC50, inhibition of hCNT2 mediated transport
T3 sequence (O43868 1-658): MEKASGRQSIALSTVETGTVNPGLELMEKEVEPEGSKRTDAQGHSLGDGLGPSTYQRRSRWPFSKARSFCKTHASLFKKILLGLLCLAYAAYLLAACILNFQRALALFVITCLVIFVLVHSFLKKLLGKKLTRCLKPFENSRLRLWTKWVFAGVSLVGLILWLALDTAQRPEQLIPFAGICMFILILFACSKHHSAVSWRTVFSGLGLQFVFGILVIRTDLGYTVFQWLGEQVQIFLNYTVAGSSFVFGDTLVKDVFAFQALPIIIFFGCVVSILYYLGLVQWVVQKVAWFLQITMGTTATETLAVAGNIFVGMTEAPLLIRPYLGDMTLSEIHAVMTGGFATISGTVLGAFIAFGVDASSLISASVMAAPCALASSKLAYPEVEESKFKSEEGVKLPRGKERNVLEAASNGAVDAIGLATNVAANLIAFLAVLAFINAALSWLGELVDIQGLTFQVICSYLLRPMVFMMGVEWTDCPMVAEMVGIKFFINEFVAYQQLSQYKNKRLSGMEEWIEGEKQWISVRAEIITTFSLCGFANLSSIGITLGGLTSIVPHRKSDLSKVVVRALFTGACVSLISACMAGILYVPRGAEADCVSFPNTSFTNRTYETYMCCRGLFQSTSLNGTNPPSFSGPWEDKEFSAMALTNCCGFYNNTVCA
Description: as §1, §2

## C=C1[C@H](CO)[C@@H](O)C[C@@H]1n1cnc2c(=O)[nH]c(N)nc21 [ETV, Entecavir]
hOCT2
  Inhibitory interaction with hOCT2: No interaction
hCNT3
  IC50: 278 µM
hCNT2
  IC50: 242 µM
